For twelve compounds, activity change, negative = cytotoxicity and AC50 results are on record in PubChem BioAssay AID1053192 (Broad Institute, 2014).

Structures are written as SMILES. Records with an inconclusive call do not appear. Activity calls are given as the source filed them.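 How the source made its calls: active means cytotoxic compounds whose falling curve has a midpoint dose at most twice the top valid dose; inconclusive means flat fit losing 30 to 70% signal, or poor fit; inactive means the rest.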

Assay [1] in a line: HepG2 cell cytotoxicity, dose response, cytotoxicity control, CellTiter-Glo luminescence, 72 h, dry powder (AID 1053192). The conditions noted are these: HepG2 viability, CellTiter-Glo ATP luminescence, 72 h; at 50 µM (top of the series).
The subject of assay [2] is HepG2 viability, CellTiter-Glo ATP luminescence, 72 h. Described as above.

`CCc1cccc2c1NC1(CCCC1)CC2C` (configuration not stated): the activity change, negative = cytotoxicity in assay [1] was -13.5% (inactive). Still for that read-out and setting: the result for `Cc1cc(C)c(S(=O)(=O)NCCn2c(C)cc3ccccc32)c(C)c1` reads 18.2% (inactive); that for `COc1ccc(Nc2ccccc2N)cc1`, 4.91% (inactive). `Cc1cc2ccccc2n1CCNC(=O)COc1ccc2ccccc2c1`: in assay [1], the activity change, negative = cytotoxicity was 21.7% (inactive). Still for that read-out and setting: the result for `CNc1ccccc1C(C)(C)c1cc(-c2cccc(OC)c2)no1` reads -1.6% (inactive). The AC50 is the concentration giving half of the maximal activity seen. On to `OCc1ccc(-c2nn(Cc3ccccc3)c3ccccc23)o1`, for which the half-maximal activity concentration (AC50) in assay [2] was 8.07 µM.

`Cc1ccc(S(=O)(=O)NCc2ccc3c(c2)cc(C)n3C)cc1`: the activity change, negative = cytotoxicity in assay [1] is -22.2% (inactive).

With `Cc1ccc(CSc2nc3[nH]ncc3c(=O)[nH]2)cc1`, in assay [1], the activity change, negative = cytotoxicity was -34.4% (inactive). Still for that read-out and setting: the result for `Cc1cccc(NC(=O)NCc2ccc3c(c2)cc(C)n3C)c1` reads -2.27% (inactive); that for `O=C(c1c(F)cccc1F)N(Cc1ccccc1)Cc1ccccc1`, -4.81% (inactive). On the same count and under the same terms, the result for `O=C(O)C1CCN(c2nc(-c3ccccc3)c3cc(Br)ccc3n2)CC1` reads 1.7% (inactive); that for `Cc1cc2cc(CNC(=O)Nc3ccc(Cl)c(Cl)c3)ccc2n1C`, -3.46% (inactive).
